According to patent US20220161456A1, “S[…] PRESERVATIVE COMPOSITION COMPRISING POLYMERIC BETAINE AND CARBAMATE” (Troy Corporation, priority 2019, published 2022):

Test system: Aspergillus niger (ATCC #6275)
Assay: EUCAST 96-well plate fungal growth inhibition (MIC)
Format: cell-based
Parameters: key to growth of Aspergillus niger in 96-well plates: (+) in each block indicates growth; (−) indicates no growth, i.e., the inhibitor was effective
Conditions: for MIC: Aspergillus niger ATCC 6275, 3 days at 35° C.
Experimental: (A) 0.17 g of 60% DPAB aqueous solution (ProTek® PBT or Polymeric Betaine EP or Polymeric Betaine Technical Grade Active Ingredient Wood Preservative, Troy Chemical Corporation, Newark, N.J.) was diluted in 9.83 g ethanol by stirring to form a concentrate containing 1% DPAB.
(B) 0.25 g of 40% IPBC solvent solution (Polyphase® AF-1, Troy Chemical Corporation, Newark, N.J.) was diluted in 9.75 g ethanol by stirring to form a concentrate containing 1% IPBC.
(C) 21.04 g of 60% DPAB aqueous solution (ProTek® PBT or Polymeric Betaine EP or Polymeric Betaine Technical Grade Active Ingredient Wood Preservative, Troy Chemical Corporation, Newark, N.J.), 6.25 g of 40% IPBC solvent solution (Polyphase AF-1, Troy Chemical Corporation, Newark, N.J.) and 22.74 g of ethanol were mixed and stirred. The resulting concentrate contained 25% polymeric betaine and 5% IPBC. The weight ratio of polymeric betaine to IPBC was 5:1. 0.33 g of this IPBC/polymeric betaine concentrate was diluted in 9.67 g of ethanol to form a use-dilution containing about 0.83% DPAB and 0.17% IPBC.
Solutions prepared as described above were tested in 96-well plates for their ability to inhibit fungal growth. The solutions were tested according to the EUCAST methodology as described in Rodriguez-Tudela et al. 2006 “Antifungal susceptibility testing in Aspergillus spp. according to EUCAST methodology,” the contents of which are incorporated by reference herein. The solutions were checked for inhibition against fungal organisms Aspergillus niger (ATCC #6275), Aureobasidium pullulans (ATCC #9348), Penicillium funiculosum (ATCC #11797) and Trichoderma pseudokoningii (ATCC #26801). This method is described below:
(1) Prepared preservative test wells by adding 2 microliters of each 1% preservative solution formulation to 198 microliters of 2xRPMI-MOPS-2% Glucose in each column “1” in duplicate.
(2) Added 100 microliters of 2xRPMI-MOPS-2% Glucose to the remaining columns.
(3) Performed 2-fold dilutions down the columns to column “12”.
(4) Prepared suspension of microorganisms from a 3-5 day old PDA slants by flooding slant with 1 mL deionized water and 0.1% Tween-20.
(5) Suspension strength was determined via hemocytometer then adjusted to 1×10^6 spores/mL with sterile deionized water.
(6) Added 100 microliters of the microorganism suspension to all wells except for sterility (−) controls containing test media. The water used to prepare the fungal suspensions was added to sterility (−) control wells.
(7) The inoculated 96-well plates were incubated for 3 days at 35° C.
(8) After incubation, fungal growth was evaluated by visual growth in test wells. Minimum inhibitory concentration (MIC) is recorded in ppm and defined as the lowest concentration of fungicide that produces no visual changes in turbidity in the test wells. (+) in each block indicates growth and (−) indicates no growth, i.e., the inhibitor was effective.
(9) The experiment is only considered valid if growth is observed in the positive (+) control wells and no growth is observed in the negative control wells.
In order to show more directly the possible synergy in the invention, the results are presented by applying the Synergy Index (S.I.). Minimal inhibitory concentration of the composition of this invention (mixture of DPAB and IPBC) are analyzed using the following equation:
MCA=Concentration of compound A in parts per million, acting alone, which prevents fungal growth at the reference point
MCA′=Concentration of compound A in parts per million, in the mixture, which prevents fungal growth at the reference point
MCB=Concentration of compound B in parts per million, acting alone, which prevents fungal growth at the reference point
MCB′=Concentration of compound B in parts per million, in the mixture, which prevents fungal growth at the reference point
When SI is greater than 2, antagonism is indicated. […] When SI is between 0.5 and 2, the action of biocides is additive.

| Compound | MIC [ppm] | growth of Aspergillus niger in 96-well plates (well 1, 50.0 ppm active) | growth of Aspergillus niger in 96-well plates (well 2, 25.0 ppm active) | growth of Aspergillus niger in 96-well plates (well 3, 12.5 ppm active) | growth of Aspergillus niger in 96-well plates (well 4, 6.25 ppm active) | growth of Aspergillus niger in 96-well plates (well 5, 3.13 ppm active) | growth of Aspergillus niger in 96-well plates (well 6, 1.56 ppm active) | growth of Aspergillus niger in 96-well plates (well 7, 0.78 ppm active) | growth of Aspergillus niger in 96-well plates (well 8, 0.39 ppm active) | growth of Aspergillus niger in 96-well plates (well 9, 0.20 ppm active) | growth of Aspergillus niger in 96-well plates (well 10, 0.10 ppm active) | growth of Aspergillus niger in 96-well plates (well 11, 0.05 ppm active) | growth of Aspergillus niger in 96-well plates (well 12, 0.02 ppm active) |
| --- | --- | --- | --- | --- | --- | --- | --- | --- | --- | --- | --- | --- | --- |
| CCCCNC(=O)OCC#CI [IPBC, 3-iodo-2-propynyl butyl carbamate] | 0.78 | − | − | − | − | − | − | − | + | + | + | + | + |
| didecyl bis(hydroxyethyl) ammonium borate [DPAB] | 12.50 | − | − | − | + | + | + | + | + | + | + | + | + |
